Target: T1, FUT7 (Homo sapiens, UniProt Q11130)
T1 sequence (Q11130 1-342): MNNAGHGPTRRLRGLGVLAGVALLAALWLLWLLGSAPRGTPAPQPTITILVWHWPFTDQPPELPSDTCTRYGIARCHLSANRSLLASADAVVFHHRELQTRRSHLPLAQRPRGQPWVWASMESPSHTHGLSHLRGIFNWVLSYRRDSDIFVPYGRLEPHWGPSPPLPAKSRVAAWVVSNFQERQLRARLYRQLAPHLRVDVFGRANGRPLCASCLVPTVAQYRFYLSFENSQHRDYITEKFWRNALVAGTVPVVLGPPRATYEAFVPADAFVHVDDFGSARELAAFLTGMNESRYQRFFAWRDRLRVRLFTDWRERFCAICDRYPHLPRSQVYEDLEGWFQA
Experiment: in vitro fucosyltransferase assay, competition with GDP-Fuc transfer
Format: biochemical

IC50: ~2.5 µM
SMILES: Nc1nc2c(ncn2[C@@H]2O[C@H](COP(=O)(O)OP(=O)(O)O[C@H]3O[C@@H](CF)[C@@H](O)[C@@H](O)[C@@H]3O)[C@@H](O)[C@H]2O)c(=O)[nH]1 [compound 6, GDP-6F-Fuc]

From paper PMC3427410 (Nature chemical biology, 2012)
